From ChEMBL document CHEMBL5316341, “The Development and Design Strategy of Leucine-Rich Repeat Kinase 2 Inhibitors: Promising Therapeutic Agents for Parkinson's Disease” (J Med Chem, 2023) come the findings set out here.

In data set [1] the target is T1, von Hippel-Lindau disease tumor suppressor/Leucine-rich repeat serine/threonine-protein kinase 2 (Mus musculus, UniProt P40338+Q5S006, R1441C). Nature of the data set: PROTAC activity at VHL/LRRK2 R1441C mutant in mouse bone marrow derived macrophages assessed as induction of LRRK2 degradation. It is filed as cell-based, BMDM.
T1 sequence (P40338 whole entry, stated change not applied): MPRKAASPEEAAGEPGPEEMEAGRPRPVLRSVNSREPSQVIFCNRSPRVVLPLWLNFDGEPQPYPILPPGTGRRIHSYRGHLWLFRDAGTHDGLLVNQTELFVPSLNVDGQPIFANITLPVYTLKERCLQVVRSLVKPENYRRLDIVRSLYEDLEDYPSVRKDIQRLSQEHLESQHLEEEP
T1 sequence (Q5S006 whole entry R1441C, stated change not applied): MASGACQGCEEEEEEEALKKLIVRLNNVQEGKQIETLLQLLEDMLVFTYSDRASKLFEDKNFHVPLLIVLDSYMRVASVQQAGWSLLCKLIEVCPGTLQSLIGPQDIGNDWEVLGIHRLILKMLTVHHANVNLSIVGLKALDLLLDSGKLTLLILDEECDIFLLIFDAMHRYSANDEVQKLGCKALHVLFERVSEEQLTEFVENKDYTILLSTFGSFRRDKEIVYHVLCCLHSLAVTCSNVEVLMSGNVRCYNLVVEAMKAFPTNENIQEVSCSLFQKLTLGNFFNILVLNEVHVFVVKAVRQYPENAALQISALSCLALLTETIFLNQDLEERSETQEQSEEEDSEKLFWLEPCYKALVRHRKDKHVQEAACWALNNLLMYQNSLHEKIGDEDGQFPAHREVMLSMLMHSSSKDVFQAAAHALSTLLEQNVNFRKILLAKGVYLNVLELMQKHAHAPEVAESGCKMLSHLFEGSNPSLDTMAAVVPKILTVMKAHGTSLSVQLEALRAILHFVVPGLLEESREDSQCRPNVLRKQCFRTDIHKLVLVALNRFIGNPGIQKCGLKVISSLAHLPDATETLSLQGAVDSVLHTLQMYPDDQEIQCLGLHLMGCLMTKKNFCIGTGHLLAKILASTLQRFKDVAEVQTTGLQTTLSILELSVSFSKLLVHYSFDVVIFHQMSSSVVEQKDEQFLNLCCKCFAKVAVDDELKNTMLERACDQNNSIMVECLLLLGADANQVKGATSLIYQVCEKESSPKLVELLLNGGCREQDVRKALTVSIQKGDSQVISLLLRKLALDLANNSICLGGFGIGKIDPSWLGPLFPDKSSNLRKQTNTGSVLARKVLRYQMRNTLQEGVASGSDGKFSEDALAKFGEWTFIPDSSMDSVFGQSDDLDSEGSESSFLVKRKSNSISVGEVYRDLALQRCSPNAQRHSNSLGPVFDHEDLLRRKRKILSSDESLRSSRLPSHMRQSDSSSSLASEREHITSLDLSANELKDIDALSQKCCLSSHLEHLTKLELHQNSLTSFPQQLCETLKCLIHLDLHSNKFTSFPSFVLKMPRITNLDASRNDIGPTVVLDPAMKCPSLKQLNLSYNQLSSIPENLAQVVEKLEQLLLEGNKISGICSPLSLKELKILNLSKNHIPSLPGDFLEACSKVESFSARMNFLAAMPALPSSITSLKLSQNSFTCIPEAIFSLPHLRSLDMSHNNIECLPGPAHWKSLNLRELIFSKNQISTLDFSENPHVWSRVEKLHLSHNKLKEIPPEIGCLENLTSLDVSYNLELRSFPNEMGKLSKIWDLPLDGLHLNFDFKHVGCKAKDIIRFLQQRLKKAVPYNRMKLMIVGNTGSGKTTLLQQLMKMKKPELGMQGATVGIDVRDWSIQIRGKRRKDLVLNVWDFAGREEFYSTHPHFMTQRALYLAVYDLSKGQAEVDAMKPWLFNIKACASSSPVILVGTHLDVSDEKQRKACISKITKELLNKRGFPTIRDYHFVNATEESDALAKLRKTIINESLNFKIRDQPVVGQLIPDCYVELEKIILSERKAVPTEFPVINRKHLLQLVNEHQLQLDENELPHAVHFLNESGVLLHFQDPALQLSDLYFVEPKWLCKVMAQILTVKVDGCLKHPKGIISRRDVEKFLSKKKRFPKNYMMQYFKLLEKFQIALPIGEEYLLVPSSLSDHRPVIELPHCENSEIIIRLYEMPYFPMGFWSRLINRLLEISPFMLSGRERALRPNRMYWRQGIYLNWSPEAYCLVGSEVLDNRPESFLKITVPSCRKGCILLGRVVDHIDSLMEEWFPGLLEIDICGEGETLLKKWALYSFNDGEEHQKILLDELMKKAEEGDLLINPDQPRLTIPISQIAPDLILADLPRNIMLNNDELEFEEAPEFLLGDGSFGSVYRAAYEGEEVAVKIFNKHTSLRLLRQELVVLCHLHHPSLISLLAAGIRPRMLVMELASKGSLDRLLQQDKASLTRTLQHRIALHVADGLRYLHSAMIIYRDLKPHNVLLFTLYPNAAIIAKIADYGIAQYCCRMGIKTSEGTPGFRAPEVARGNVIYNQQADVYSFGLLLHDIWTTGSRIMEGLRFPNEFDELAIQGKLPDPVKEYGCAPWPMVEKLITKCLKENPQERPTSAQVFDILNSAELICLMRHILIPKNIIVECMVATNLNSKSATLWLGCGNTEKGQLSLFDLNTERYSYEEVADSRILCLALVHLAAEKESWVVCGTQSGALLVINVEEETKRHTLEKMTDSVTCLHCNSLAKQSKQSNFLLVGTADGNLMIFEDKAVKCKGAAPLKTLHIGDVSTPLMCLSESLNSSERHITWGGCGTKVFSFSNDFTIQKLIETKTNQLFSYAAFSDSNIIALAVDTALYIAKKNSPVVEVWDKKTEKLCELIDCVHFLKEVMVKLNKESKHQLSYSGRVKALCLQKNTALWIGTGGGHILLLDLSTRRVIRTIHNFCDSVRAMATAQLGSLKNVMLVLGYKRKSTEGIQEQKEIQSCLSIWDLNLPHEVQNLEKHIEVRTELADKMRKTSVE
Data set [2] can be described thus: Oral bioavailability in mouse. The conditions noted are these: in vivo. Type of data set: ADME, organism-based.
The subject of data set [3] is von Hippel-Lindau disease tumor suppressor/Leucine-rich repeat serine/threonine-protein kinase 2 (Mus musculus), Q5S006+P40338 [R1441C]. Nature of the data set: PROTAC activity at VHL/LRRK2 R1441C mutant in mouse bone marrow derived macrophages assessed as induction of LRRK2 degradation by measuring half-life. The conditions noted are these: BMDM. It is filed as cell-based.

The test system is the same in data set [4]. Nature of the data set: PROTAC activity at VHL/LRRK2 R1441C mutant in mouse PBMC cells assessed as induction of LRRK2 degradation by measuring half-life. Type of data set: cell-based.
The test system is the same in data set [5]. Briefly: PROTAC activity at VHL/LRRK2 R1441C mutant in mouse bone marrow derived macrophages assessed as induction of LRRK2 degradation by measuring maximal efficacy relative to control. Type of data set: cell-based. The settings on record: BMDM.
Data set [6] addresses T1, von Hippel-Lindau disease tumor suppressor/Leucine-rich repeat serine/threonine-protein kinase 2. Briefly: PROTAC activity at VHL/LRRK2 R1441C mutant in mouse PBMC cells assessed as induction of LRRK2 degradation. Type of data set: cell-based.
Data set [7] shares this target. Nature of the data set: PROTAC activity at VHL/LRRK2 R1441C mutant in mouse embryonic fibroblast cells assessed as induction of LRRK2 degradation. It is filed as cell-based, MEF.
The test system of data set [8] is von Hippel-Lindau disease tumor suppressor/Leucine-rich repeat serine/threonine-protein kinase 2 (Mus musculus), Q5S006+P40338 [R1441C]. Nature of the data set: PROTAC activity at VHL/LRRK2 R1441C mutant in mouse PBMC cells assessed as induction of LRRK2 degradation by measuring maximal efficacy relative to control. It is filed as cell-based.
Data set [9] shares this test system. Nature of the data set: PROTAC activity at VHL/LRRK2 R1441C mutant in mouse embryonic fibroblast cells assessed as induction of LRRK2 degradation by measuring half-life. It is filed as cell-based. The conditions noted are these: MEF.
Data set [10] has the same test system. Nature of the data set: PROTAC activity at VHL/LRRK2 R1441C mutant in mouse embryonic fibroblast cells assessed as induction of LRRK2 degradation by measuring maximal efficacy relative to control. It is filed as cell-based. The settings on record: MEF.
In data set [11] the target is Leucine-rich repeat serine/threonine-protein kinase 2 (Homo sapiens, UniProt Q5S007). Briefly: Inhibition of wild-type LRRK2 (unknown origin) by adapta assay.
Data set [12] addresses Leucine-rich repeat serine/threonine-protein kinase 2 (Homo sapiens, UniProt Q5S007, G2019S). Briefly: Inhibition of LRRK2 G2019S mutant (unknown origin) by adapta assay.
Data set [13] has as its target Protein cereblon/Leucine-rich repeat serine/threonine-protein kinase 2 (Homo sapiens, UniProt Q5S007+Q96SW2, G2019S). Briefly: PROTAC activity at CRBN/HiBit tagged-LRRK2 G2019S mutant in HEK293 cells assessed as LRRK2 degradation by Nano-Glo dual-luciferase reporter assay. Type of data set: cell-based. On the technique in general: HiBiT is a short tag that completes a luciferase, so light tracks the accessible tagged protein.

Data set [14] has as its system Protein cereblon/Leucine-rich repeat serine/threonine-protein kinase 2 (Homo sapiens), Q5S007+Q96SW2 [G2019S]. Briefly: PROTAC activity at CRBN/LRRK2 G2019S mutant in HEK293 cells assessed as LRRK2 degradation by measuring maximum degradation by Nano-Glo dual-luciferase reporter assay relative to control. Type of data set: cell-based.
The target in data set [15] is T2, Protein cereblon/Leucine-rich repeat serine/threonine-protein kinase 2 (Homo sapiens, UniProt Q5S007+Q96SW2). Nature of the data set: PROTAC activity at CRBN/wild type HiBit tagged-LRRK2 in HEK293 cells assessed as LRRK2 degradation by measuring maximum degradation by Nano-Glo dual-luciferase reporter assay relative to control. Type of data set: cell-based.
The target in data set [16] is T2, Protein cereblon/Leucine-rich repeat serine/threonine-protein kinase 2. Briefly: PROTAC activity at CRBN/wild type HiBit tagged-LRRK in HEK293 cells assessed as LRRK2 degradation by Nano-Glo dual-luciferase reporter assay. It is filed as cell-based.

SMILES strings stand for the structures.

For `CNc1nc(Nc2ccc(C(=O)N3CCN(C[C@H]4CC[C@H](CSC(C)(C)[C@H](NC(=O)C5(F)CC5)C(=O)N5C[C@@H](O)C[C@@H]5C(=O)NCc5ccc(-c6scnc6C)cc5)CC4)CC3)cc2OC)ncc1Cl`, the EC50 in data set [1], in data set [6] and in [7] was 15 nM each time. Besides, in data set [2], the bioavailability (in general, dose-corrected exposure relative to a reference, in per cent) stood at 15%. Further, the T1/2 in data set [3], in data set [4] and in data set [9] was 36 min each time. Moreover, the Emax in [5], in data set [8] and in [10] was 82% in each case.
For the compound `CC1(Oc2ccc3[nH]nc(-c4cc(N5CCN(CCOCCOCCOCCOc6ccc7c(c6)C(=O)N(C6CCC(=O)NC6=O)C7=O)CC5)ncn4)c3c2)CC1` (stereo unspecified), the IC50 (usually the concentration that inhibits the measured activity by half) in [11] amounted to 1.46 nM; in data set [12], 0.98 nM.
Turning to `C[C@H]1CN(c2cc(-c3n[nH]c4ccc(OC5(C)CC5)cc34)ccn2)CCN1CCOCCOCCOCCOc1ccc2c(c1)C(=O)N(C1CCC(=O)NC1=O)C2=O` (stereo partly specified), the EC50 in data set [13] and in data set [16] was less than 10 nM each time. For the same compound, the Emax in data set [14] and in data set [15] was more than 70% each time.
